Data: patent publication US12275731B2, “Azaindole inhibitors of wild-type and mutant forms of LRRK2” (DANA-FARBER CANCER INSTITUTE, INC., priority 2018, dated 2025)

Assays:
Test in all cases: KinomeScan profiling
Format in all cases: binding
BRSK1 = target: T1, BRSK1 (Homo sapiens, UniProt Q8TDC3); conditions: BRSK1, 1 μM; read-out: % control
T1 sequence (Q8TDC3 1-778): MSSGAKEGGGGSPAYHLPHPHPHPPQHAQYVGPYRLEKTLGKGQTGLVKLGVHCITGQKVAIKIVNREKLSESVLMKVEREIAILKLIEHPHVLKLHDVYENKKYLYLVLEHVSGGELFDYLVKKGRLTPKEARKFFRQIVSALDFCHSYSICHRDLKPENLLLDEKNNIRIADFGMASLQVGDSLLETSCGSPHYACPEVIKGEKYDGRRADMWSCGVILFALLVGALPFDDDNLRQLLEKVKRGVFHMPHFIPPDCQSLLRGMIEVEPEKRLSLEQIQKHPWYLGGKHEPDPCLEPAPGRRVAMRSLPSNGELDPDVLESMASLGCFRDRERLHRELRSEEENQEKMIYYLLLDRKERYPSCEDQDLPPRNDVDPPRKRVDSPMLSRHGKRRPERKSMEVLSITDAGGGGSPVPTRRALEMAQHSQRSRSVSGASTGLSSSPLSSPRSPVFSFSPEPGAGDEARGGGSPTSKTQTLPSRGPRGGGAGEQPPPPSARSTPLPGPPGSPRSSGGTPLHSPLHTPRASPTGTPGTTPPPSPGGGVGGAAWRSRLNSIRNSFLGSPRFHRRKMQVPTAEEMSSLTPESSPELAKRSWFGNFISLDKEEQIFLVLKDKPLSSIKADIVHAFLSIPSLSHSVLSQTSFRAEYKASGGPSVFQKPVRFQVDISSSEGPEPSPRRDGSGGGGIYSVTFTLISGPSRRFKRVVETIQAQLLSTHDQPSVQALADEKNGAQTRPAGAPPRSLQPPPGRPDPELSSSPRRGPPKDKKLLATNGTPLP
Outline: (§1)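 At 1 μM in DMSO, compounds are run through a broad 468-member kinase panel. The luminescent read-out is normalised so that vehicle gives 100% and a positive control gives 0%; any kinase falling below 35% is treated as a target.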

EPHB3 = target: T2, EPHB3 (Homo sapiens, UniProt P54753); conditions: EPHB3, 1 μM; read-out: % control
T2 sequence (P54753 34-998): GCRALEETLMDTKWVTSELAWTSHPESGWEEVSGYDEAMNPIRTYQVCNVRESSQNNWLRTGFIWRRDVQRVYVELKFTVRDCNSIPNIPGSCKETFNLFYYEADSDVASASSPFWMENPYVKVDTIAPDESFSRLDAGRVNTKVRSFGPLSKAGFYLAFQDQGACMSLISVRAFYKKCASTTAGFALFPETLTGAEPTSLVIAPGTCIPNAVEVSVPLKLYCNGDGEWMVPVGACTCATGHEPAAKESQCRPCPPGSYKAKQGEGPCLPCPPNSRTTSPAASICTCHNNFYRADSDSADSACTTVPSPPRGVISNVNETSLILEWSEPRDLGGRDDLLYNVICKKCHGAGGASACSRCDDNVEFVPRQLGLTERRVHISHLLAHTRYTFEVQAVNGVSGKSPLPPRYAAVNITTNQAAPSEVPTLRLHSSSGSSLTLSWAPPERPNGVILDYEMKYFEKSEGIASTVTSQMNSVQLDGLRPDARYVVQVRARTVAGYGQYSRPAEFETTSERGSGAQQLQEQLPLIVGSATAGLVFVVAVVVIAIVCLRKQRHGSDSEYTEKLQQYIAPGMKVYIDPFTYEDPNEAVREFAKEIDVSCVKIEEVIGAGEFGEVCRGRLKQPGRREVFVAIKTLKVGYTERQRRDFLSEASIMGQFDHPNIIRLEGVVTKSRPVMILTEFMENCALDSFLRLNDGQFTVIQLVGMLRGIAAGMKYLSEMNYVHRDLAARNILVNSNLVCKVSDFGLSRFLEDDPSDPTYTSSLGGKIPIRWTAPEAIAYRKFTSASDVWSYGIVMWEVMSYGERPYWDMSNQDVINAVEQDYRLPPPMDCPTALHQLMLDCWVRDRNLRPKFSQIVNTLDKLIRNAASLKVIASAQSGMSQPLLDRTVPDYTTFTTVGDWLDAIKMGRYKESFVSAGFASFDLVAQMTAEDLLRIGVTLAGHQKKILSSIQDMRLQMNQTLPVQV
Outline: as §1

FER = FER (Homo sapiens, UniProt P16591); conditions: read-out: % control
Chain of FER (P16591 whole entry): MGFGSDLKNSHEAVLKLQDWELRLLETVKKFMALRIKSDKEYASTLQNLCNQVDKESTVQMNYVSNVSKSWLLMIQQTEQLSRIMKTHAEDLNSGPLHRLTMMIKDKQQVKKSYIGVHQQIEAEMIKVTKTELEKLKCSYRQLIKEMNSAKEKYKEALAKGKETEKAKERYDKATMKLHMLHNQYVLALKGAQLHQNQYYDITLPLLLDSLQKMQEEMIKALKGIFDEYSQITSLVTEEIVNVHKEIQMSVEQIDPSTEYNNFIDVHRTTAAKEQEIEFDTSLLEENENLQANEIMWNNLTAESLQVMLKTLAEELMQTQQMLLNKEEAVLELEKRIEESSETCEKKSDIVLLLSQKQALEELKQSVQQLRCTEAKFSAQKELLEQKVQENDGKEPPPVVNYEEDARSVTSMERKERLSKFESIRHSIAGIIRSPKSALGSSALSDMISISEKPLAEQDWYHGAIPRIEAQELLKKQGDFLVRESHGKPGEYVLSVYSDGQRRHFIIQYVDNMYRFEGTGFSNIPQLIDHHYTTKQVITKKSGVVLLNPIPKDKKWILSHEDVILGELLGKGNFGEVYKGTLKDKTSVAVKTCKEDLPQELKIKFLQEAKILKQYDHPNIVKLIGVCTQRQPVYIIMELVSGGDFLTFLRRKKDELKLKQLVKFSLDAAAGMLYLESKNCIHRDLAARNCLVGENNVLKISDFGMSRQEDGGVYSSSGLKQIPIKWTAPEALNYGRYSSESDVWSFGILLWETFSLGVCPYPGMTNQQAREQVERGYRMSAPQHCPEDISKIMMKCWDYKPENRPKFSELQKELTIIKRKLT
Outline: as §1

FGFR3 = FGFR3 (Homo sapiens, UniProt P22607); conditions: FGFR3, 1 μM; read-out: % control
Chain of FGFR3 (P22607 23-806): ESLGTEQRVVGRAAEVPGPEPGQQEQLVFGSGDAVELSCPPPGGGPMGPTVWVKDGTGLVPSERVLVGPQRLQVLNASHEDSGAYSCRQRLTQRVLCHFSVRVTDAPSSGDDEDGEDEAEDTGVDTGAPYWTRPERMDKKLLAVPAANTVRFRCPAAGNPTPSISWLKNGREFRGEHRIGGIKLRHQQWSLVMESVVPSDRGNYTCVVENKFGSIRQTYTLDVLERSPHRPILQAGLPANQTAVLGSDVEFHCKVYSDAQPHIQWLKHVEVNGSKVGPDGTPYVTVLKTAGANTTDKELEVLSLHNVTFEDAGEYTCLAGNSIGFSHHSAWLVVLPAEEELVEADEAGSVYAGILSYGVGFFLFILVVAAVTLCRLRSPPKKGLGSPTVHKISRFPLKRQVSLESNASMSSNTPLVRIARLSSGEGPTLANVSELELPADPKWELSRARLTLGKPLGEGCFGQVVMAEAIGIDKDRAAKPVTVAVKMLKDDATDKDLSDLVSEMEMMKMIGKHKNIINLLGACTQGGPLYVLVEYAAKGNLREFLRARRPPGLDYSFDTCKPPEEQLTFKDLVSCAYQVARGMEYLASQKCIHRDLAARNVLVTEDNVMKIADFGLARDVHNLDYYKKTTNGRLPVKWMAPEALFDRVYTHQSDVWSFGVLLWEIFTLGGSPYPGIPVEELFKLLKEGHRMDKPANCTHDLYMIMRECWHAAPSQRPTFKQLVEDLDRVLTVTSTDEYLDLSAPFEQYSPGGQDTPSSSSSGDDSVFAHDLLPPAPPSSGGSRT
Outline: as §1

KIT(D816V) = target: T3, KIT(D816V) (Homo sapiens, UniProt P10721, D816V); conditions: read-out: % control
T3 construct: purchased KinomeScan®
T3 sequence (P10721 26-976 D816V): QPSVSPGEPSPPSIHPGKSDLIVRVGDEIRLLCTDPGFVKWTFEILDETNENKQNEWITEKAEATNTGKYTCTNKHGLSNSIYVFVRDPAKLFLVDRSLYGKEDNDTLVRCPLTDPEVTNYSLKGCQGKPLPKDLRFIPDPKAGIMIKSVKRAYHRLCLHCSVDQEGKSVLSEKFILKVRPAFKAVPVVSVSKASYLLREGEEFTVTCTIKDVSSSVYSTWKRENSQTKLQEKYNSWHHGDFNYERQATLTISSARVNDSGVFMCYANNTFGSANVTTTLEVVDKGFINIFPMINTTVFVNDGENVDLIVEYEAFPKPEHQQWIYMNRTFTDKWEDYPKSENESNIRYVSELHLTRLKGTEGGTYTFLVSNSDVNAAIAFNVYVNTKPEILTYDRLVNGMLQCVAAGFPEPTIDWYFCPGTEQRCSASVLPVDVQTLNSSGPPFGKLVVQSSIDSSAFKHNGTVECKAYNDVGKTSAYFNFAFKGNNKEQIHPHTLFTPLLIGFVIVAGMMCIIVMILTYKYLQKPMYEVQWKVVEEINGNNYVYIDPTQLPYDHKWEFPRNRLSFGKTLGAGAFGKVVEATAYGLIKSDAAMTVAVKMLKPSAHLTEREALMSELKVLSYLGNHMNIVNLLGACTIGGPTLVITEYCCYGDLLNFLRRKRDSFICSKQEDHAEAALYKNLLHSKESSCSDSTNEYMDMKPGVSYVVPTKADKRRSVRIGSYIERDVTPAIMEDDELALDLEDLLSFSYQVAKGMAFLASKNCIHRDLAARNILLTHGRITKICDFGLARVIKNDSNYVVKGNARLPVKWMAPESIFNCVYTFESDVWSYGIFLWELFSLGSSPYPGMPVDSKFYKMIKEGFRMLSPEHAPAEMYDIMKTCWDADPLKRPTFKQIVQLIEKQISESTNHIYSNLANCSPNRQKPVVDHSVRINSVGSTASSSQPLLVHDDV
Outline: as §1

PIP5K2C = target: T4, PIP5K2C (Homo sapiens, UniProt Q8TBX8); conditions: read-out: % control
T4 construct: purchased KinomeScan® (panel service)
T4 sequence (Q8TBX8 1-421): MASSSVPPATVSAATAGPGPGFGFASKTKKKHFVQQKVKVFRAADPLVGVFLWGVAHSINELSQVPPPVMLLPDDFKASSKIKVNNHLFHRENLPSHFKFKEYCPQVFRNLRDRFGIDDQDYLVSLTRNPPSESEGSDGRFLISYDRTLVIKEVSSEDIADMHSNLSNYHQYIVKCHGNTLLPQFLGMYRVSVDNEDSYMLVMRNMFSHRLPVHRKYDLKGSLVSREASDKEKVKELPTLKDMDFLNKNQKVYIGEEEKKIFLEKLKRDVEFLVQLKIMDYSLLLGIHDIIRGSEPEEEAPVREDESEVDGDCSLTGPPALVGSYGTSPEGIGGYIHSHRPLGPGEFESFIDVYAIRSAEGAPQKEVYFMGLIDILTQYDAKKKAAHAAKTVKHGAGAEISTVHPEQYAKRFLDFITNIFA
Outline: as §1

| SMILES | remaining binding at 1 µM (BRSK1) | remaining binding at 1 µM (EPHB3) | remaining binding at 1 µM (FER) | remaining binding at 1 µM (FGFR3) | remaining binding at 1 µM (KIT(D816V)) | remaining binding at 1 µM (PIP5K2C) |
| --- | --- | --- | --- | --- | --- | --- |
| CNc1c(-c2ccc(C(=O)N3CCC(N4CCOCC4)CC3)cc2)cnc2[nH]cc(Cl)c12 [Compound 96, (4-(3-chloro-4-(methylamino)-1H-pyrrolo[2,3-b]pyridin-5-yl)phenyl)(4-morpholinopiperidin-1-yl)methanone] | 100% | 100% | 100% | 82% | 86% | 63% |
| O=C(c1ccc(-c2cnc3[nH]cc(Cl)c3c2NC2CCCC2)cc1)N1CCC(N2CCOCC2)CC1 [Compound 101, (4-(3-chloro-4-(cyclopentylamino)-1H-pyrrolo[2,3-b]pyridin-5-yl)phenyl)(4-morpholinopiperidin-1-yl)methanone] | 100% | 79% | 100% | 67% | 95% | 77% |
| CNc1c(-c2cnn([C@H]3CCN(C(C)=O)C[C@@H]3F)c2)cnc2[nH]cc(Cl)c12 [Compound 77, 1-((3S,4S)-4-(4-(3-chloro-4-(methylamino)-1H-pyrrolo[2,3-b]pyridin-5-yl)-1H-pyrazol-1-yl)-3-fluoropiperidin-1-yl)ethan-1-one] | 100% | 100% | 100% | 64% | 46% | 93% |
